Results from PubChem BioAssay AID1259411 (Chemical Carcinogenesis Research Information System (CCRIS), 2018).
Active and inactive are the calls of the source. No rule for the calls is given here.

System: rodent carcinogenicity bioassays, tumor incidence
Test: CCRIS carcinogenicity studies
Details: Dose: 0, Dose: 0
Summary of the method: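 NCI-built, expert-reviewed records of carcinogenicity and related test outcomes (mutagenicity, tumor promotion/inhibition) compiled from published and report sources, historical span 1985-2011, not updated.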

For `NC(=O)N(CCc1ccccc1)N=O`, the carcinogen call (Species: RAT, Strain/Sex: F344/FEMALE, Route: GAVAGE, 20 MG/ML (TOTAL DOSE 0; 0.9 MMOL) IN 2 ML ETHYL ACETATE AND CORN OIL (1:2) 2/WK FOR 22 WK (STUDY DURATION: LIFETIME), 20 MG/ML (TOTAL DOSE 0; 0.9 MMOL) IN 2 ML ETHYL ACETATE AND CORN OIL (1:2) 2/WK FOR 22 WK (STUDY DURATION: LIFETIME), Tumor Site: Type of Lesion: LIVER: TUMOR, FORESTOMACH: SQUAMOUS CELL CARCINOMA) was “active; positive”, the carcinogen call (Species: RAT, Strain/Sex: F344/FEMALE, Route: GAVAGE, 20 MG/ML IN 0.2 ML ETHYL ACETATE AND CORN OIL 2/WK FOR 22 WK (STUDY DURATION: LIFESPAN), Tumor Site: Type of Lesion: FORESTOMACH: TUMOR, LIVER: TUMOR) was “active; positive” and the carcinogen call (Species: RAT, Strain/Sex: F344/MALE, Route: GAVAGE, 20 MG/ML (TOTAL DOSE 0; 0.9 MMOL) IN 2 ML ETHYL ACETATE AND CORN OIL (1:2) 2/WK FOR 22 WK (STUDY DURATION: LIFETIME), 20 MG/ML (TOTAL DOSE 0; 0.9 MMOL) IN 2 ML ETHYL ACETATE AND CORN OIL (1:2) 2/WK FOR 22 WK (STUDY DURATION: LIFETIME), Tumor Site: Type of Lesion: LIVER: TUMOR, FORESTOMACH: SQUAMOUS CELL CARCINOMA) was “active; positive”. The carcinogen call (Species: RAT, Strain/Sex: F344/MALE, Route: GAVAGE, 20 MG/ML IN 0.2 ML ETHYL ACETATE AND CORN OIL 2/WK FOR 22 WK (STUDY DURATION: LIFESPAN), Tumor Site: Type of Lesion: FORESTOMACH: TUMOR, LIVER: TUMOR, DUODENUM: TUMOR, Tumor Site: Type of Lesion: FORESTOMACH: TUMOR, LIVER: TUMOR, DUODENUM: TUMOR) was “active; positive”.
In the case of `c1ccc2occc2c1`, the carcinogen call (Species: MOUSE, Strain/Sex: B6C3F1/FEMALE, Route: GAVAGE, 120, 240 MG/KG IN CORN OIL 5 D/WK FOR 103 WK (STUDY DURATION: 104 WK), 120, 240 MG/KG IN CORN OIL 5 D/WK FOR 103 WK (STUDY DURATION: 104 WK), Tumor Site: Type of Lesion: LUNG: ALVEOLAR/BRONCHIOLAR ADENOMA, ALVEOLAR/BRONCHIOLAR CARCINOMA, LIVER: HEPATOCELLULAR ADENOMA, HEPATOCELLULAR ADENOM) was “active; positive”, the carcinogen call (Species: MOUSE, Strain/Sex: B6C3F1/MALE, Route: GAVAGE, 60, 120 MG/KG IN CORN OIL 5 D/WK FOR 103 WK (STUDY DURATION: 104 WK), 60, 120 MG/KG IN CORN OIL 5 D/WK FOR 103 WK (STUDY DURATION: 104 WK), Tumor Site: Type of Lesion: LUNG: ALVEOLAR/BRONCHIOLAR ADENOMA, ALVEOLAR/BRONCHIOLAR ADENOMA OR CARCINOMA, LIVER: HEPATOCELLULAR ADENOMA, HEPATOCELL) was “active; positive” and the carcinogen call (Species: RAT, Strain/Sex: F344/FEMALE, Route: GAVAGE, 60, 120 MG/KG IN CORN OIL 5 D/WK FOR 103 WK (STUDY DURATION: 104 WK), 60, 120 MG/KG IN CORN OIL 5 D/WK FOR 103 WK (STUDY DURATION: 104 WK), Tumor Site: Type of Lesion: KIDNEY: TUBULAR CELL ADENOCARCINOMA) was “active; positive”. For the same molecule, the carcinogen call (Species: RAT, Strain/Sex: F344/MALE, Route: GAVAGE, 30, 60 MG/KG IN CORN OIL 5 D/WK FOR 103 WK (STUDY DURATION: 104 WK), 30, 60 MG/KG IN CORN OIL 5 D/WK FOR 103 WK (STUDY DURATION: 104 WK)) was “inactive; negative”.
`N[C@@H](CS)C(=O)O` was tested, and the carcinogen call (Species: RAT, Strain/Sex: F344/FEMALE, Route: ORAL, 0.25, 0.5% IN DRINKING WATER FOR 108 WK (STUDY DURATION: 108 WK), 0.25, 0.5% IN DRINKING WATER FOR 108 WK (STUDY DURATION: 108 WK)) was “inactive; negative” and the carcinogen call (Species: RAT, Strain/Sex: F344/MALE, Route: ORAL, 0.25, 0.5% IN DRINKING WATER FOR 108 WK (STUDY DURATION: 108 WK), 0.25, 0.5% IN DRINKING WATER FOR 108 WK (STUDY DURATION: 108 WK)) was “inactive; negative”.
In the case of `C=CC1CC=CCC1` (stereo unspecified), the carcinogen call (Species: MOUSE, Strain/Sex: B6C3F1/FEMALE, Route: GAVAGE, 200, 400 MG/KG IN CORN OIL 5 D/WK FOR 103 WK, 200, 400 MG/KG IN CORN OIL 5 D/WK FOR 103 WK, Tumor Site: Type of Lesion: OVARIES: BENIGN MIXED TUMOR, GRANULOSA CELL TUMOR, GRANULOSA CELL TUMOR OR CARCINOMA) was “active; positive”.
